Data on seven molecules can be found in patent US20250368686A1, “PEPTIDE DRUGS FOR S[…] D[…] BLOCKING HOMO- AND HETERO-DIMERIZATION OF OPIOID RECEPTORS” (OKINAWA INSTITUTE OF SCIENCE AND TECHNOLOGY SCHOOL …, priority 2022, published 2025).

Where a name gives a salt, the structure may show the parent alone. Read-outs that look alike come from different tables or passages of the source. Where no end group is shown, it is not given here.

Series [1] has as its target T1, DOR and MOR (DM) heterodimers (Rattus norvegicus, UniProt P33535).
T1 construct: expressed in transfected cells; host or cells: CHO-K1 cells stably co-expressing DOR and MOR
The series is described as follows: DM heterodimerisation, two-colour single-molecule imaging in CHO-K1 cells (colocalisation index, heterodimer lifetime). In kind it is cell-based. The note with it: for DM colocalisation, competition by expressed SNAPf-tagged TM peptides: CHO-K1 cells expressing DOR-mGFP, MOR-Halo and the TM peptide.

The subject of series [2] is MOR. Format: cell-based, rat. The following applies: D- and K-cells.
Series [3] has as its target T2, MOR (Rattus norvegicus, UniProt P33535). Format: cell-based. On the set-up: expressed in transfected cells; host or cells: CHO-K1 (A10, A13); T24 (A16); CHO-K1 stably expressing Gqi5 (A19). The note with it: CHO-K1 cells, addition alone.
The target of series [4] is T2, MOR. In kind it is cell-based. On the set-up: expressed in transfected cells; host or cells: CHO-K1 (A10, A13); T24 (A16); CHO-K1 stably expressing Gqi5 (A19). The following applies: T24 cells, addition alone.
In series [5] the target is T3, DOR (Rattus norvegicus, UniProt P33533). In kind it is cell-based. On the set-up: fluorescent tag protein (not specified for this assay); expressed in transfected cells; host or cells: CHO-K1 (D cells, MD cells). The note with it: for DOR internalisation, effect of agonist: 0.5 μM agonist, D cells and MD cells.
T3 sequence (P33533 whole entry): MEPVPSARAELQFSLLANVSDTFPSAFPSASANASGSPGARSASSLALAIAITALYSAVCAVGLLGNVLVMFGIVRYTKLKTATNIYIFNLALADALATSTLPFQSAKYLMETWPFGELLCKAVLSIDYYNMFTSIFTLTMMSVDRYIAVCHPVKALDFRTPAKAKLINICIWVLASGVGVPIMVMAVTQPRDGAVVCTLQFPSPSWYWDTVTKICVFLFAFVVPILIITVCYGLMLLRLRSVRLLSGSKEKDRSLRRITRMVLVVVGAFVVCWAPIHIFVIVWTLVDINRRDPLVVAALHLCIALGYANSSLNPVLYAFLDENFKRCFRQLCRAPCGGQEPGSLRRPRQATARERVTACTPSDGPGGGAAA
The target in series [6] is T2, MOR. In kind it is cell-based. The following applies: 0.5 μM agonist; for MOR internalisation: 60-min observations. The arrangement: fluorescent tag protein (not specified for this assay); expressed in transfected cells; host or cells: CHO-K1 (M cells, MD cells); for Ca2+ mobilisation CHO-K1 stably expressing Gqi5.
The target in series [7] is T2, MOR. Format: cell-based. On the set-up: fluorescent tag protein (not specified for this assay); expressed in transfected cells; host or cells: CHO-K1 (M cells, MD cells); for Ca2+ mobilisation CHO-K1 stably expressing Gqi5.
For series [8], the target named is T3, DOR. In kind it is cell-based. The arrangement: expressed in transfected cells; host or cells: CHO-K1 (A11, A14); T24 (A17); CHO-K1 stably expressing Gqi5 (A20). The note with it: CHO-K1 cells, addition alone.
The target of series [9] is T3, DOR. In kind it is cell-based. On the set-up: expressed in transfected cells; host or cells: CHO-K1 (A11, A14); T24 (A17); CHO-K1 stably expressing Gqi5 (A20). The following applies: T24 cells, addition alone.
In the next series the test system is T24 cells. The experiment in a line: LDH cytotoxicity assay in T24 cells. In kind it is cell-based, human. The following applies: 48-h exposure, 50, 100 and 200 μM. How it is done:
(§1) Cytotoxicity was measured by subtracting LDH content in remaining viable cells from total LDH in untreated controls.

Another series deals with hippocampal neurons. The series is described as follows: LDH cytotoxicity assay in primary culture of hippocampal neurons. In kind it is cell-based. The following applies: hippocampal neurons DIV8, DIV12, DIV14; 48, 96 and 144-hour exposures, 100 μM. How it is done: as §1
Treatments of neurons with Trition-100 (1%) and DMSO (10%) for 48 h were used as positive controls.

T2 sequence (P33535 whole entry): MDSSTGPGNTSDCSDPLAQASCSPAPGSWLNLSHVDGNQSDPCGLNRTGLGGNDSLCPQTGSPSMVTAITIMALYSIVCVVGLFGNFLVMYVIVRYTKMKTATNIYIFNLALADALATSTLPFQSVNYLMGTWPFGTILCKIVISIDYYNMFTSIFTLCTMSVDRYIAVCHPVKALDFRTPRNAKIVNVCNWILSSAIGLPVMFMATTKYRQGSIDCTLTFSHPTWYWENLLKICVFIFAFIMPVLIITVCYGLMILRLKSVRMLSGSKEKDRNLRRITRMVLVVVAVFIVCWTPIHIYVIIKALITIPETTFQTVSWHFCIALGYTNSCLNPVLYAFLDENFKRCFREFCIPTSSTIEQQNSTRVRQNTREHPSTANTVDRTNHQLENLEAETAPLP
T1 sequence (P33535 whole entry, one chain of several): as the sequence (P33535 whole entry) above

Turning to `C[C@@H](NC(=O)[C@@H](N)Cc1ccc(O)cc1)C(=O)NCC(=O)N(C)[C@@H](Cc1ccccc1)C(=O)NCCO` [DAMGO, [D-Ala^2, N-Mc-Phet, Gly^5-ol]-enkephalin acetate salt], the “DM heterodimer lifetime, effect of agonist” value in series [1] (0.5 μM agonist, within 5 min after addition) is reported as “prolonged”. In series [1] (0.5 μM agonist, within 5 min after addition, agonist-bound MOR with DOR), the “DM colocalisation index, effect of agonist” value is “higher”. Also, the “intracellular Ca2+ mobilisation” value in the series on MOR [2] is listed as “not”; at MOR [7] (M-cells), “induced”; at MOR [7] (MD-cells, compared with M-cells) it was “greatly enhanced”. The “Fraction of internalized molecules” value on MOR [3] is 28.1 ± 1.7 %; at MOR [4], 26.3 ± 1.1 %. For the same molecule, the “Residency time of internalized molecules” value at MOR [3] stood at 11.3 ± 1.9 min; on MOR [4], 6.5 ± 1.2 min. Also, at DOR [5] (MD cells, 0.5 μM MOR agonist, 4.3% without DAMGO addition), the DOR internalisation was determined as 13.3%. Moreover, the values for the MOR internalisation at MOR [6] (M cells) and at MOR [6] (MD cells) were 31.8% and 51.1%, respectively.

As to `C=CCN1C[C@H](C)N([C@H](c2ccc(C(=O)N(CC)CC)cc2)c2cccc(OC)c2)C[C@H]1C` [SNC-80], the “Fraction of internalized molecules” value on DOR [8] was found to be 61.6 ± 1.7 %; at DOR [9], 56.5 ± 1.9 %. The “Residency time of internalized molecules” value amounted to 10.8 ± 0.9 min at DOR [8] and 8.9 ± 1.0 min on DOR [9]. Moreover, the “DOR internalisation, effect of agonist” value at DOR [5] was “induced dramatic DOR internalisation”. Further, the “MOR internalisation, effect of agonist” value on MOR [6] (M cells and MD cells) was “induced”.

As to `CN1CC[C@]23c4c5ccc(O)c4O[C@H]2[C@@H](O)C=C[C@H]3[C@H]1C5` [morphine], the “DOR internalisation, effect of agonist” value at DOR [5] is given as “hardly affected”.

As to “LSHVDGNQSDPCGLNRTGLGGNDSLCPQTG [Mpep(32-61)MD]”, in series [1] (soluble peptides, 10 μM final, added to cells stably co-expressing WT-DOR and MOR), the DM colocalisation index result is “largest reductions”.

Take “MOR's N-term+TM1: aa53-99 sequence of MOR conjugated with the SNAPf tag, expressed in cells (NDSLCPQTGSPSMVTAITIMALYSIVCVVGLFGNFLVMYVIVRYTKM; cysteine pairing not given here; also: conjugated with SNAPf tag)”: the “DM colocalisation, competition by expressed SNAPf-tagged TM peptides” value in series [1] is “competes with DM dimers more effectively”.

Turning to “MOR's TM1: MOR's TM1 (aa71-94) conjugated with the SNAPf tag, expressed in cells (IMALYSIVCVVGLFGNFLVMYVIV; also: conjugated with SNAPf tag)”, the “DM colocalisation, competition by expressed SNAPf-tagged TM peptides” value in series [1] is given as “lowered the DM colocalisation”.

Regarding SDTFPSAFPSASANASGSPGARS [Dpep(20-42)DM], the “cytotoxicity (LDH)” value in the series with T24 cells is “no toxicity”; in the series with hippocampal neurons it was “little toxicity”.
